# From patent publication US9284531B2, “Differentiation of human pluripotent stem cells into cells expressing mature hepatocyte markers by 2D and bioreactor culture” (Takara Bio Europe AB, priority 2009, dated 2016)
# Tests used:
# CYP3A4 = assay: CYP P450 activity test in bioreactor cultures (midazolam to 1'OH midazolam); conditions: both bioreactors HepDiff-1 and HepDiff-2, days 40 and 47, 3 μM at start
# Protocol: (§1) Bioreactor cultures that were treated with the hepatic differentiation protocol were tested or their ability to metabolize phenacetin, diclophenac and midazolam via the phase I cytochrome (CYP) P450 enzymes CYP1A2, CYP2C9 and CYP3A4, respectively. At days 40 and 47 after inoculation of the cells a CYP P450 activity test was performed according to the scheme:
# (§2) For this purpose, fresh medium inflow and medium outflow was closed and a cocktail of the test substances was injected into the recirculating medium to get the following concentrations at the beginning of the test: 3 μM Midazolam, 9 μM Diclophenac and 26 μM Phenacetin. During the next 24 hours, the bioreactor was operated in recirculation mode (no fresh medium was added and only the medium recirculation pump recirculates the medium). Samples from the recirculation were taken before starting the experiment and after 1, 4, 8 and 24 hours and analyzed for the metabolites of the test substances by liquid chromatography/mass spectrometry (LC/MS). Analyses were performed at Astrazeneca AB, Gothenburg, Sweden. After the last sample was taken the bioreactor was flushed with fresh medium in single pass mode with two times the volume of the bioreactor and tubing system and then switched to the normal perfusion mode recirculation with fresh medium inflow). […]
# CYP1A2 = assay: CYP P450 activity test in bioreactor cultures (phenacetin to acetaminophen); assay type: in vitro ADME, human; conditions: bioreactors HepDiff-1 and HepDiff-2, hESC-derived cells, 26 μM at start, 24 h recirculation, LC/MS
# Protocol: as §1, §2
# HFF = HFF feeder cell experiments in 2D cultures and bioreactors (activin A production, proliferation); assay type: cell-based, human
# Protocol: The metabolic activity and differentiation of the cells inside the bioreactors were characterized on a daily basis by measuring soluble factors in the medium outflow and in the recirculating medium. The following parameters were measured using automated clinical chemistry analyzers (Roche Diagnostics, Heidelberg, Germany): α-fetoprotein (AFP), alkaline phosphatase (AP), alanine transaminase (ALT), aspartate transaminase (AST), beta-human chorionic gonadotropin (β-hCG), c-peptide, carcinoembryonic antigen (CEA), cytokeratin fragment 19 (Cyfra 21-1), erythropoetin, estradiol, follicle stimulating hormone (FSH), factors II-V-X-XIII, fibrinogen, gamma-glutamyltransferase (GGT), glucose, lactate, lactate dehydrogenase (LDH), luteinizing hormone, neuronspecific enolase (NSE), osmolality, osteocalcin, pseudocholinesterase (PCHE), prealbumin progesterone, prolactin, S-100, thyroid-stimulating hormone (TSH), tissue plasminogen activator (TPA), transferrin (for a detailed description of the measurement methods see Table 8 in appendix). Additionally glutamine, glutamate, glucose, lactate, ammonium, pH, sodium (Na+), potassium (K+) were measured with a BioProfile 100 Plus device (Nova Biomedical, Waltham, Mass., USA). Activin A, insulin and albumin were measured with enzyme-linked immunosorbent assays (ELISAs) following the manufacturer's recommendations (activin A using products DY338, DY999, DY994, DY995 from R&D Systems, Wiesbaden-Nordenstadt, Germany; insulin using an ELISA from Invitrogen; albumin using an ELISA from Albuwell, Exocell Inc., Philadelphia, Pa., USA). Urea was measured using a colorimetric determination kit (QuantiChrom, BioAssay Systems, Hayward, Calif., USA). Galactose and sorbitol concentrations were measured by enzymatic assays (Roche Diagnostics).
# The pluripotency supporting activity of the HFF could be correlated with their production of activin A. To further examine the behaviour of the HFF feeder cells several experiments only with HFF were carried out in 2D cultures and in two bioreactors.
# In one experiment, the bioreactor is inoculated with active HFF that will be cultured in medium supplemented with serum and bFGF to stimulate HFF proliferation. Increase of the cell number is monitored by the levels of glucose consumption and lactate production. When a sufficient cell number is reached culture medium is changed to hBS medium for conditioning. Optimal medium exchange rates have to be determined for example measuring activin A and glucose concentrations in the conditioned medium as quality control parameters. A low glucose level might indicate the demand for increasing the medium feed rate and a low activin A level might be a sign for insufficient conditioning unsuitable to promote hESC pluripotency.
compound,measurement,setting,value
"Cc1ncc2n1-c1ccc(Cl)cc1C(c1ccccc1F)=NC2 [midazolam, Midazolam]",metabolism of midazolam,CYP3A4,no metabolism
"CCOc1ccc(NC(C)=O)cc1 [phenacetin, Phenacetin]",metabolism of phenacetin by CYP1A1/1A2,CYP1A2,Significant metabolism
basic fibroblast growth factor [bFGF],mitogenic effect on HFF,"HFF; bioreactor experiment HFF-2, medium supplemented with serum replacement",not observed
same,activin A production by HFF,HFF; medium containing serum replacer,stimulated
same,activin A production by HFF,HFF; medium supplemented with serum,did not stimulate
same,mitogenic effect on active HFF,"HFF; medium supplemented with serum, 2D and bioreactor experiment HFF-1",strong mitogenic effect
